Results on 26 compounds are retold here after US11236055B2 (Venenum Biodesign, LLC, priority 2016, dated 2022).

Molecules are shown by their SMILES. Structures can show the parent of a compound that is named as a salt. Bounds are passed on as bounds.

One test has as its target T1, human TGR5 receptor (Homo sapiens, UniProt Q8TDU6).
T1 construct: host or cells: CHO-K1 (hTGR5-CHO cells)
T1 sequence (Q8TDU6 1-330): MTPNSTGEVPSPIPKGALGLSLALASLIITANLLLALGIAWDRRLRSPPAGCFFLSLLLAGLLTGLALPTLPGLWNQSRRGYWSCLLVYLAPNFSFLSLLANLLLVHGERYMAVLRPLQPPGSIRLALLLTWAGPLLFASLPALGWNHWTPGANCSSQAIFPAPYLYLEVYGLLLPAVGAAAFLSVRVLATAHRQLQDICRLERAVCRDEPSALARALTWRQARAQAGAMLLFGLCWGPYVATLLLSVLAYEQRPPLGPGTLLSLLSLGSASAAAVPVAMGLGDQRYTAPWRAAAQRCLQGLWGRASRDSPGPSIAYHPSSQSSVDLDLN
Nature of the test: Human TGR5 cAMP production assay. In kind it is cell-based. As to conditions: human TGR5, luminescent cAMP assay; coded A-D; read-out: Human TGR5 Lum. cAMP Activity (EC50). A digest of the protocol: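 CHO-K1 cells stably expressing human TGR5, with IBMX and cAMP antibody, were exposed to half-log serially diluted compound for 1 h at room temperature. cAMP measured by enzyme-fragment complementation luminescence (XS+ kit) after overnight incubation; EC50 values reported.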
For orientation: Changes in cAMP serve as a functional read-out for many G protein-coupled receptors.

The target of the next test is T2, mouse TGR5 receptor (Mus musculus, UniProt Q80SS6).
T2 construct: expressed in transfected cells; host or cells: HEK293-EBNA (293 c18, ATCC CRL10852), Hygromycin B selection
T2 sequence (Q80SS6 1-329): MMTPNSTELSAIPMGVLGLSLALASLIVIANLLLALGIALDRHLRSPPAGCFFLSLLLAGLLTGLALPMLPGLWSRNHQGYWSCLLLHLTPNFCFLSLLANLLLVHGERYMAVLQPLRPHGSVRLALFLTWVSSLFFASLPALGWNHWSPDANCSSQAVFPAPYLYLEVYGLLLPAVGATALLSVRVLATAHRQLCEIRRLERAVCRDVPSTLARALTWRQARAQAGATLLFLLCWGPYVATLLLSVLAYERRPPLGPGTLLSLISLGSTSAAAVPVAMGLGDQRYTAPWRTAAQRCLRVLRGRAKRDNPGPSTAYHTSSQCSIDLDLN
Nature of the test: Mouse TGR5 cAMP production assay (HTRF, Cisbio cAMP HiRange). In kind it is cell-based. As to conditions: HEK293-EBNA cells overexpressing mouse TGR5, HTRF cAMP HiRange; coded A-D. A digest of the protocol: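 cAMP read by HTRF competition after 1 h room-temperature compound exposure of mouse TGR5-overexpressing HEK293-EBNA cells. Cells were suspended in serum-free DMEM containing 500 μM IBMX; compounds ran as 12-point half-log dilutions in duplicate; EC50 derived.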

Usually EC50 stands for the midpoint of the concentration-response curve. For `COc1cnccc1-c1cccc(C(C)(C)NS(=O)(=O)c2ccc(Cl)cc2Cl)c1` [Compound 2BG], the EC50 on human TGR5 receptor and on mouse TGR5 receptor was less than 0.1 µM each time.
In the case of `Cc1cnccc1-c1cccc([C@@H](C)NS(=O)(=O)c2ccccc2C(F)(F)F)c1` [Compound 5AT, (R)-N-(1-(3-(3-methylpyridin-4-yl)phenyl)ethyl)-2-(trifluoromethyl)benzenesulfonamide], the EC50 at human TGR5 receptor was less than 0.1 µM; at mouse TGR5 receptor it was 0.1 to 0.999 µM.
On the same counts, the results for `Cc1cnccc1-c1cccc([C@H](C)N(CCCC(=O)NC[C@@H](O)[C@H](O)[C@@H](O)[C@@H](O)CO)S(=O)(=O)c2cccc(Cl)c2C)c1` [Compound 20AK, 4-(3-chloro-2-methyl-N-((S)-1-(3-(3-methylpyridin-4-yl)phenyl)ethyl)phenylsulfonamido)-N-((2R,3S,4S,5S)-2,3,4,5,6-pentahydroxyhexyl)butanamide] are less than 0.1 µM and 0.1 to 0.999 µM.
For `COc1cnccc1-c1cccc(C(C)(C)NS(=O)(=O)c2cc(Cl)ccc2Cl)c1` [Compound 2BE], the values for the EC50 on human TGR5 receptor and at mouse TGR5 receptor were less than 0.1 µM and 0.1 to 0.999 µM, respectively.
On the same counts, the results for `CC(C)(NS(=O)(=O)c1ccccc1C(F)(F)F)c1cccc(-c2ccc3[nH]cnc3c2)c1` [Compound 5AL, N-(2-(3-(1H-benzo[d]imidazol-5-yl)phenyl)propan-2-yl)-2-(trifluoromethyl)benzenesulfonamide] are 1 to 30 µM and more than 30 µM.
On the same counts, the results for `CCc1cnccc1-c1cccc([C@H](CCCC#N)NS(=O)(=O)c2ccccc2C(F)(F)F)c1` [Compound 6AC, (S)-N-(4-cyano-1-(3-(3-ethylpyridin-4-yl)phenyl)butyl)-2-(trifluoromethyl)benzenesulfonamide] are less than 0.1 µM and less than 0.1 µM.
On the same counts, the results for `CCc1cnccc1-c1cccc(C2CN(C(=O)CP(=O)(O)O)CCN2S(=O)(=O)c2cccc(Cl)c2C)c1` (stereo not shown) [Compound 50] are 0.1 to 0.999 µM and less than 0.1 µM.
`Cc1cnccc1-c1cccc(C2CN(CCCC(=O)O)CCN2S(=O)(=O)c2cccc(Cl)c2C)c1` (stereo not shown) [Compound 52, 4-(4-((3-chloro-2-methylphenyl)sulfonyl)-3-(3-(3-methylpyridin-4-yl)phenyl)piperazin-1-yl)butanoic acid]: the EC50 on human TGR5 receptor and on mouse TGR5 receptor was 0.1 to 0.999 µM throughout.
For `Cc1cnccc1-c1cccc([C@H](CCCC#N)N(CCCC(=O)OC(C)(C)C)S(=O)(=O)c2cccc(Cl)c2C)c1` [Compound 15AC, (S)-tert-butyl 4-(3-chloro-N-(4-cyano-1-(3-(3-methylpyridin-4-yl)phenyl)butyl)-2-methylphenylsulfonamido) butanoate], the EC50 at human TGR5 receptor was 0.1 to 0.999 µM; on mouse TGR5 receptor, 1 to 30 µM.
On the same counts, the results for `CC(C)(NS(=O)(=O)c1cccc(C(F)(F)F)c1)c1cccc(-c2ccncc2N)c1` [Compound 1AM] are less than 0.1 µM and 0.1 to 0.999 µM.
On the same counts, the results for `Cc1cnccc1-c1cccc([C@H](C)N(CCCC(=O)NS(=O)(=O)CCC(=O)O)S(=O)(=O)c2cccc(Cl)c2C)c1` [Compound 20BW, (S)-3-(N-(4-(3-chloro-2-methyl-N-(1-(3-(3-methylpyridin-4-yl)phenyl)ethyl)phenylsulfonamido)butanoyl)sulfamoyl)propanoic acid] are 0.1 to 0.999 µM and less than 0.1 µM.
The matching figures for `CCc1cnccc1-c1cccc(C2CNCCN2S(=O)(=O)c2cccc(Cl)c2C)c1` (racemic) [Compound 43, (+/−) 1-((3-chloro-2-methylphenyl)sulfonyl)-2-(3-(3-ethylpyridin-4-yl)phenyl)piperazine hydrochloride]: less than 0.1 µM and less than 0.1 µM.
On to `Cc1cnccc1-c1cccc([C@H](C)N(CCCC(=O)N[C@@H](CO)C(=O)O)S(=O)(=O)c2cccc(Cl)c2C)c1` [Compound 21AI, (S)-2-(4-(3-chloro-2-methyl-N-((S)-1-(3-(3-methylpyridin-4-yl)phenyl)ethyl)phenylsulfonamido)butanamido)-3-hydroxypropanoic acid], for which the EC50 is less than 0.1 µM at human TGR5 receptor and 0.1 to 0.999 µM at mouse TGR5 receptor.
The matching figures for `CCc1cnccc1-c1cccc([C@H](C)N(CCCC(=O)NCCNS(=O)(=O)NCC(=O)O)S(=O)(=O)c2cccc(Cl)c2C)c1` [Compound 38AA, (S)-2-((N-(2-(4-(3-chloro-N-(1-(3-(3-ethylpyridin-4-yl)phenyl)ethyl)-2-methylphenylsulfonamido)butanamido)ethyl)sulfamoyl)amino)acetic acid]: less than 0.1 µM and less than 0.1 µM.
The matching figures for `Cc1cnccc1-c1cccc(C(C)(C)N(CCCC(=O)NCCNC(=N)N)S(=O)(=O)c2cccc(Cl)c2C)c1` [Compound 27AB, 4-(3-chloro-2-methyl-N-(2-(3-(3-methylpyridin-4-yl)phenyl)propan-2-yl)phenylsulfonamido)-N-(2-guanidinoethyl)butanamide]: less than 0.1 µM and 0.1 to 0.999 µM.
In the case of `Cc1cnccc1-c1cccc(C2CN(C(=O)CCCC(=O)O)CCN2S(=O)(=O)c2cccc(Cl)c2C)c1` (stereo not shown) [Compound 46AE, 5-(4-((3-chloro-2-methylphenyl)sulfonyl)-3-(3-(3-methylpyridin-4-yl)phenyl)piperazin-1-yl)-5-oxopentanoic acid], the EC50 on human TGR5 receptor and at mouse TGR5 receptor was less than 0.1 µM each time.
As to `Cc1cnccc1-c1cccc([C@H](CCCC(=O)NCS(=O)(=O)O)NS(=O)(=O)c2ccccc2C(F)(F)F)c1` [Compound 20BR, (S)-(5-(3-(3-methylpyridin-4-yl)phenyl)-5-(2-(trifluoromethyl)phenylsulfonamido)pentanamido)methanesulfonic acid], the EC50 on human TGR5 receptor and at mouse TGR5 receptor was 0.1 to 0.999 µM in each case.
In the case of `Cc1cnccc1-c1cccc(C(C)(C)N(CCCC(=O)NCCNc2ncc(C(=O)O)cn2)S(=O)(=O)c2cccc(Cl)c2C)c1` [Compound 27AA, 2-((2-(4-(3-chloro-2-methyl-N-(2-(3-(3-methylpyridin-4-yl)Phenyl)propan-2-yl)phenylsulfonamido)butanamido)ethyl)amino)pyrimidine-5-carboxylic acid], the EC50 at human TGR5 receptor and at mouse TGR5 receptor was less than 0.1 µM throughout.
For `CCc1cnccc1-c1cccc([C@H](C)NS(=O)(=O)c2ccccc2C(F)(F)F)c1` [Compound 5AQ, (S)-N-(1-(3-(3-ethylpyridin-4-yl)phenyl)ethyl)-2-(trifluoromethyl)benzenesulfonamide], the 50% effective concentration (EC50) on human TGR5 receptor and on mouse TGR5 receptor was less than 0.1 µM throughout.
Take `Cc1nccc(-c2cccc([C@H](C)NS(=O)(=O)c3cccc(Cl)c3C)c2)c1C` [Compound 7AB, (S)-3-chloro-N-(1-(3-(2,3-dimethylpyridin-4-yl)phenyl)ethyl)-2-methylbenzenesulfonamide]: the results for the concentration giving a half-maximal response (EC50) on human TGR5 receptor and on mouse TGR5 receptor were 0.1 to 0.999 µM and 1 to 30 µM, respectively.
On to `Cc1cnccc1-c1cccc(C(C)N(CCCC(=O)NCCSO)S(=O)(=O)c2cccc(C(F)(F)F)c2)c1` (stereo not shown) [Compound 20BD, N-(2-(hydroxythio)ethyl)-4-(N-(1-(3-(3-methylpyridin-4-yl)phenyl)ethyl)-3-(trifluoromethyl)phenylsulfonamido)butanamide], for which the EC50 at human TGR5 receptor and on mouse TGR5 receptor was 0.1 to 0.999 µM in each case.
Regarding `CCc1cnccc1-c1cccc(C(C)(C)NS(=O)(=O)c2cccc(Cl)c2C)c1` [Compound 2BY], the EC50 at human TGR5 receptor and at mouse TGR5 receptor was less than 0.1 µM throughout.
Regarding `COc1cnccc1-c1cccc(C(C)(C)NS(=O)(=O)c2ccc(Cl)cc2[N+](=O)[O-])c1` [Compound 2BI], the figures for the EC50 at human TGR5 receptor and on mouse TGR5 receptor were less than 0.1 µM and 0.1 to 0.999 µM, respectively.
On the same counts, the results for `Cc1cnccc1-c1cccc([C@H](C)N(CCCC(=O)NCCS(=O)(=O)O)S(=O)(=O)c2ccccc2C(F)(F)F)c1` are less than 0.1 µM and 0.1 to 0.999 µM.
As to `CN(C)c1cc(-c2cccc(C(C)(C)NS(=O)(=O)c3ccccc3C(F)(F)F)c2)ccn1` [Compound 6AB, N-(2-(3-(2-(dimethylamino)-pyridin-4-yl)phenyl)propan-2-yl)-2-(trifluoromethyl)benzenesulfonamide], the EC50 on human TGR5 receptor and at mouse TGR5 receptor was 1 to 30 µM each time.
In the case of `Cc1cnccc1-c1cccc(C(C)(C)N(CCCC(=O)NCCN)S(=O)(=O)c2cccc(Cl)c2C)c1` [Compound 21, N-(2-Aminoethyl)-4-(3-chloro-2-methyl-N-(2-(3-(3-methylpyridin-4-yl)phenyl)propan-2-yl)-phenylsulfonamido)butanamide], the EC50 was less than 0.1 µM at human TGR5 receptor and 0.1 to 0.999 µM on mouse TGR5 receptor.
